Where “and” joins values, the source holds several entries; their conditions need not be identical. Equal entries are not always repeated.
Assays:
5HT6 (h) = target: T1, 5HT6 (h) (Homo sapiens, UniProt P50406); assay: 5HT subtype antagonism assay (Eurofins Cerep): 5HT6; assay type: cell-based; settings: concentration not given
T1 construct: host or cells: CHO cells

HFD-fed C57BL/6J mice = assay: DIO mice: tissue weight; assay type: in vivo, mouse; settings: for Tissue Weight Kidney / Tissue Weight Liver / Tissue Weight Pancreas / Tissue Weight eWAT / Tissue Weight iWAT: PO; for Predicted (LS) mean diff. (Vehicle vs. 11c), Tissue Weight: Dunnett's multiple comparisons test; for Significant? (Vehicle vs. 11c), Tissue Weight: Dunnett's test, alpha 0.05; for Predicted (LS) mean 2 (11c group), Tissue Weight: test details, in g (unit assumed)
Text: For in vivo efficacy in DIO models and CDAHFD models, the experimental protocol for this study was approved by the Institutional Animal Care and Use Committee (IACUC) at the Korea Advanced Institute of Science and Technology (No. KA2023-027-v2) or Kyungpook National University (No. KNU-20200134). All relevant ethical guidelines were followed. C57BL/6 J male mice (11 weeks old) were purchased from the Charles River Japan and were housed in a specific pathogen-free barrier facility under a regular light-dark cycle (12-hour light/12-hour dark) at 24°C with 40–60% humidity. Food (standard chow diet, Envigo, 2018S) and water were provided ad libitum. […] Mice were euthanized by the method of cervical dislocation. The measurement of lean and fat mass in live mice was performed by a body composition analyzer (LF50 BCA-analyzer, Bruker). After 6 h of fasting, mice were sacrificed, and tissue samples were obtained.

TNF-α = assay: CDAHFD mice: TNF-α immunohistochemical staining; assay type: in vivo, mouse; design: TNF-α immunohistochemical staining (TNF-a area), individual mouse / TNF-α immunohistochemical staining (TNF-a area), Average: unit not given here; settings: for TNF-α immunohistochemical staining (TNF-a area), Average / TNF-α immunohistochemical staining (TNF-a area), individual mouse: CDAHFD mice; for TNF-α immunohistochemical staining (TNF-a area), Average: group average n=5, CDAHFD+Vehicle 9.246, Vehicle 2.978; for TNF-α immunohistochemical staining (TNF-a area), individual mouse: individual animals No. 1-5 (Fig.4g)
Text: C57BL/6 J male mice were purchased from the Japan SLC. Inc (Hamamatsu, Japan). Mice (5 weeks old) were fed Teklad Certitied Irradiated Global 18% protein rodent diet purchased from Dooyeol Biotech Co. Ltd (Seoul, South Korea) during the acclimation period. The liver fibrosis/inflammation-induced groups were CDAHFD-fed (A06071302, Research diet). […] All animal experiments complied with the relevant ethical regulations.
Mouse liver tissues were fixed in 4% formalin solution (Sigma–Aldrich, St. Louis, MO, USA) and embedded in paraffin. 4-μm-thick liver sections were deparaffinized in xylene, and rehydrated through descending grades of ethanol. To evaluate liver fibrosis, sections were stained with Sirius red solution and subjected to immunohistochemical staining. Tissue sections, after deparaffinization, underwent a 16-hour incubation in a solution containing 0.1% Direct Red 80 (365548, Sigma-Aldrich) dissolved in Picric acid (P-201, Spectrum Chemical, CA, USA) for Sirius red staining. The sections were briefly immersed in a 0.01 N HCl solution (1129, Ducksan, Republic of Korea) for 2 min. and then rinsed with distilled water for destaining. Subsequently, the sections underwent dehydration through […] grades of ethanol. Immunohistochemical staining was performed using the Polyview Plus HRP-DAB (anti-Rabbit) Kit (ENZ-KIT159-0150, ENZO Life Science, NY, USA) following the manufacturers’ instructions. Deparaffinized sections were boiled in IHC-TekTM Epitope Retrieval solution (IW-1100, IHCWORLD, MD, USA) for 45 min., cooled for 1 h, incubated in a 3% H2O2 solution (69355-0350, JUNSEI, Japan) for 15 min., washed, and then incubated overnight with primary antibodies (α-SMA, ab5694, Abcam, 1:500 dilution; TNF-α, ab6671, Abcam, 1:100 dilution and IL-1β, ab9722, Abcam, 1:100 dilution). Subsequently, the sections were treated with Polyview Plus HRP for 2 h and developed with DAB chromogen/substrate. Stained […] sections were confirmed by light microscopy (Olympus BX53 upright microscope, Tokyo, Japan). The degree of hepatic fibrosis and immunohistochemical staining was quantified by morphometric analysis of stained liver sections using NIH ImageJ software.

[1] = DIO mice, 5mpk, individual animals, 5 mg/kg
[2] = DIO mice, 10mpk, individual animals, 10 mg/kg

T1 sequence (P50406 whole entry): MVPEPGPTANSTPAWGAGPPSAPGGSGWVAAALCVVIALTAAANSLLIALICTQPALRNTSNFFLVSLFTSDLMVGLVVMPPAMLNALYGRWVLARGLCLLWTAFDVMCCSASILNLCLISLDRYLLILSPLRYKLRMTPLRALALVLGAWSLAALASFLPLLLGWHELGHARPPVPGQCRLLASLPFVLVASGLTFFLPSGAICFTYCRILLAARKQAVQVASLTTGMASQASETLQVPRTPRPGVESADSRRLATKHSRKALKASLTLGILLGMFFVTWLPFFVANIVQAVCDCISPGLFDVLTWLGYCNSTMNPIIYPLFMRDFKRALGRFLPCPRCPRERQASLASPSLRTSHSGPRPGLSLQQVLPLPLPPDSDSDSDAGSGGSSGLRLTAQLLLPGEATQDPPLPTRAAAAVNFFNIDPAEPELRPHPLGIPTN

Cc1nc2n(c(=O)c1CCN1CCC(=C3c4ccc(Cl)cc4CCc4cccnc43)CC1)CCCC2O (stereo not shown) [Compound 11c]
Selectivity 6: % inhibition (5HT6 (h)): 7% | Tissue Weight Kidney (HFD-fed C57BL/6J mice; DIO mice, 5mpk, group mean): 0.17 g | Tissue Weight Liver (HFD-fed C57BL/6J mice; DIO mice, 5mpk, group mean): 1.34 g | Tissue Weight Pancreas (HFD-fed C57BL/6J mice; DIO mice, 5mpk, group mean): 0.39 g | Tissue Weight eWAT (HFD-fed C57BL/6J mice; DIO mice, 5mpk, group mean): 1.01 g | Tissue Weight iWAT (HFD-fed C57BL/6J mice; DIO mice, 5mpk, group mean): 1.37 g | Tissue Weight Kidney (HFD-fed C57BL/6J mice; [1]): 0.166 g and 0.156 g and 0.168 g and 0.162 g and 0.198 g and 0.195 g and 0.164 g | Tissue Weight Liver (HFD-fed C57BL/6J mice; [1]): 1.353 g and 1.128 g and 1.239 g and 1.293 g and 1.762 g and 1.451 g | Tissue Weight Pancreas (HFD-fed C57BL/6J mice; [1]): 0.398 g and 0.353 g and 0.255 g and 0.338 g and 0.634 g and 0.394 g and 0.387 g | Tissue Weight eWAT (HFD-fed C57BL/6J mice; [1]): 1.284 g and 1.045 g and 0.952 g and 0.74 g and 0.897 g and 0.939 g and 1.199 g | Tissue Weight iWAT (HFD-fed C57BL/6J mice; [1]): 1.826 g and 1.295 g and 1.198 g and 1.045 g and 1.186 g and 1.418 g and 1.644 g | Tissue Weight Kidney (HFD-fed C57BL/6J mice; DIO mice, 10mpk, group mean): 0.18 g | Tissue Weight Liver (HFD-fed C57BL/6J mice; DIO mice, 10mpk, group mean): 1.25 g | Tissue Weight Pancreas (HFD-fed C57BL/6J mice; DIO mice, 10mpk, group mean): 0.36 g | Tissue Weight eWAT (HFD-fed C57BL/6J mice; DIO mice, 10mpk, group mean): 0.57 g | Tissue Weight iWAT (HFD-fed C57BL/6J mice; DIO mice, 10mpk, group mean): 1.15 g | Tissue Weight Kidney (HFD-fed C57BL/6J mice; [2]): 0.183 g and 0.162 g and 0.142 g and 0.267 g and 0.16 g | Tissue Weight Liver (HFD-fed C57BL/6J mice; [2]): 1.17 g and 1.368 g and 1.031 g and 1.332 g and 1.38 g and 1.246 g | Tissue Weight Pancreas (HFD-fed C57BL/6J mice; [2]): 0.302 g and 0.381 g and 0.318 g and 0.442 g and 0.387 g and 0.34 g | Tissue Weight eWAT (HFD-fed C57BL/6J mice; [2]): 0.449 g and 0.747 g and 0.512 g and 0.764 g and 0.418 g | Tissue Weight iWAT (HFD-fed C57BL/6J mice; [2]): 0.774 g and 1.585 g and 1.202 g and 1.593 g and 1.007 g and 0.712 g | Tissue weight of inguinal white adipose tissue (iWAT) (HFD-fed C57BL/6J mice; DIO mice, vs vehicle): significantly decreased | Tissue weight of liver (HFD-fed C57BL/6J mice; DIO mice, vs vehicle): significantly decreased | Predicted (LS) mean diff. (Vehicle vs. 11c), Tissue Weight (HFD-fed C57BL/6J mice; Kidney, 5mpk): 0.01612 | Significant? (Vehicle vs. 11c), Tissue Weight (HFD-fed C57BL/6J mice; Kidney, 5mpk): No | Predicted (LS) mean 2 (11c group), Tissue Weight (HFD-fed C57BL/6J mice; Kidney, 5mpk): 0.1727 | Predicted (LS) mean diff. (Vehicle vs. 11c), Tissue Weight (HFD-fed C57BL/6J mice; Kidney, 10mpk): 0.006 | Significant? (Vehicle vs. 11c), Tissue Weight (HFD-fed C57BL/6J mice; Kidney, 10mpk): No | Predicted (LS) mean 2 (11c group), Tissue Weight (HFD-fed C57BL/6J mice; Kidney, 10mpk): 0.1828 | Predicted (LS) mean diff. (Vehicle vs. 11c), Tissue Weight (HFD-fed C57BL/6J mice; Liver, 5mpk): 0.2072 | Significant? (Vehicle vs. 11c), Tissue Weight (HFD-fed C57BL/6J mice; Liver, 5mpk): No | Predicted (LS) mean 2 (11c group), Tissue Weight (HFD-fed C57BL/6J mice; Liver, 5mpk): 1.336 | Predicted (LS) mean diff. (Vehicle vs. 11c), Tissue Weight (HFD-fed C57BL/6J mice; Liver, 10mpk): 0.289 | Significant? (Vehicle vs. 11c), Tissue Weight (HFD-fed C57BL/6J mice; Liver, 10mpk): Yes | Predicted (LS) mean 2 (11c group), Tissue Weight (HFD-fed C57BL/6J mice; Liver, 10mpk): 1.255 | Predicted (LS) mean diff. (Vehicle vs. 11c), Tissue Weight (HFD-fed C57BL/6J mice; Pancreas, 5mpk): 0.1064 | Significant? (Vehicle vs. 11c), Tissue Weight (HFD-fed C57BL/6J mice; Pancreas, 5mpk): No | Predicted (LS) mean 2 (11c group), Tissue Weight (HFD-fed C57BL/6J mice; Pancreas, 5mpk): 0.3941 | Predicted (LS) mean diff. (Vehicle vs. 11c), Tissue Weight (HFD-fed C57BL/6J mice; Pancreas, 10mpk): 0.1388 | Significant? (Vehicle vs. 11c), Tissue Weight (HFD-fed C57BL/6J mice; Pancreas, 10mpk): No | Predicted (LS) mean 2 (11c group), Tissue Weight (HFD-fed C57BL/6J mice; Pancreas, 10mpk): 0.3617 | Predicted (LS) mean diff. (Vehicle vs. 11c), Tissue Weight (HFD-fed C57BL/6J mice; eWAT, 5mpk): -0.00381 | Significant? (Vehicle vs. 11c), Tissue Weight (HFD-fed C57BL/6J mice; eWAT, 5mpk): No | Predicted (LS) mean 2 (11c group), Tissue Weight (HFD-fed C57BL/6J mice; eWAT, 5mpk): 1.373 | Predicted (LS) mean diff. (Vehicle vs. 11c), Tissue Weight (HFD-fed C57BL/6J mice; eWAT, 10mpk): 0.2238 | Significant? (Vehicle vs. 11c), Tissue Weight (HFD-fed C57BL/6J mice; eWAT, 10mpk): No | Predicted (LS) mean 2 (11c group), Tissue Weight (HFD-fed C57BL/6J mice; eWAT, 10mpk): 1.146 | Predicted (LS) mean diff. (Vehicle vs. 11c), Tissue Weight (HFD-fed C57BL/6J mice; iWAT, 5mpk): 0.08033 | Significant? (Vehicle vs. 11c), Tissue Weight (HFD-fed C57BL/6J mice; iWAT, 5mpk): No | Predicted (LS) mean 2 (11c group), Tissue Weight (HFD-fed C57BL/6J mice; iWAT, 5mpk): 1.008 | Predicted (LS) mean diff. (Vehicle vs. 11c), Tissue Weight (HFD-fed C57BL/6J mice; iWAT, 10mpk): 0.5213 | Significant? (Vehicle vs. 11c), Tissue Weight (HFD-fed C57BL/6J mice; iWAT, 10mpk): Yes | Predicted (LS) mean 2 (11c group), Tissue Weight (HFD-fed C57BL/6J mice; iWAT, 10mpk): 0.567 | TNF-α immunohistochemical staining (TNF-a area), Average (TNF-α; 11c 5 mpk): 4.057 | TNF-α immunohistochemical staining (TNF-a area), individual mouse (TNF-α; 11c 5 mpk): 3.240 and 5.741 and 5.588 and 3.146 and 2.573 | TNF-α immunohistochemical staining (TNF-a area), Average (TNF-α; 11c 10mpk): 5.049 | TNF-α immunohistochemical staining (TNF-a area), individual mouse (TNF-α; 11c 10mpk): 7.848 and 3.111 and 8.161 and 2.686 and 3.441 | TNF-α expression (immunohistochemical staining) (TNF-α; CDAHFD-fed 11c vs CDAHFD-fed vehicle group): significant decrease

From PMC10799935, “Discovery of a peripheral 5HT2A antagonist as a clinical candidate for metabolic dysfunction-associated steatohepatitis” (Nature Communications, 2024)
